From patent publication US8852657B2, “Chromones as therapeutic agents” (Unigen, Inc., priority 2007, dated 2014)

Test system: high fat diet induced C57BL/6J mice
Assay: Fasting blood glucose, UP780 dose-range study
Assay type: in vivo, mouse
Details: weeks 5 and 7; UP780 200 mg/kg, GW1929 5 mg/kg
Protocol: Once an induction of the disease on animals after 8 weeks of high fat diets was confirmed by monitoring of selected parameters, daily oral treatment was initiated. On each day, the test articles and the positive control GW1929 (Tocris Bioscience, Ellisville, Mo., Batch #2A/58705) were dissolved in 0.5% methylcellulose (Sigma, St. Louise Mo., Lot#116H0857) and delivered at an oral dose of 100, 200 and 400 mg/kg of UP780 (Lot # L1806QMAW-01); 400 mg/kg of Qmatrix® Aloe vera gel powder (QM400, Lot# G6319103-L3) as well as 5 mg/kg of GW1929. As GW1929 was not completely solublized in methylcellulose, it was first dissolved in DMSO (Sigma, St. Louis, Mo., Batch#064K0067). The final concentration of test compounds, including the vehicle, was then adjusted to contain 5% DMSO before drug administration. The carrier vehicle treated animals received 0.5% methylcellulose only. No detectable sign of irritation was observed after each drug or vehicle administration.
As described on Example 12, male C57BL/6J mice were purchased from Jackson Laboratories (Bar Harbor, Me.) at 6 weeks of age. […]
Fasting blood glucose, total cholesterol and triglyceride levels were measured using 15-20 μl of blood obtained from tail vein. […]

## CN(CCOc1ccc(C[C@H](Nc2ccccc2C(=O)c2ccccc2)C(=O)O)cc1)c1ccccn1 [GW1929, N-(2-Benzoylphenyl)-O-[2-(methyl-2-pyridinylamino)ethyl]-L-tyrosine]
  fasting glucose level compared to vehicle: statistically significant lower fasting glucose level
